# Measurements published in paper PMC2192356 (The Journal of Experimental Medicine, 1996).
# Where a SMILES comes first, the peptide text is derived from it. Where no end group is shown, it is not given here. The star is where a group is joined. Biotin = O=C1N[C@H]2[C@H](CS[C@H]2CCCCC(=O)*)N1
# Columns and labels:
# [1] = test system: class II proteins; type: binding
# [2] = biological target: T1, IAk (Mus musculus, UniProt P01910+P06343); type: binding, murine; conditions: pH 5
# [3] = test system: IEk; type: binding, murine; conditions: pH 5
# [4] = test system: IAd; type: binding, murine; conditions: pH 5
# [5] = biological target: T2, DR1 (Homo sapiens, UniProt P01903+P01911, A100R/D57E/F55L/F60I/F76Y/I96L/L162R/M171V/P40L/Q125E/R42F/V115G/Y59C); type: binding; conditions: pH 7
# [6] = test system: IEk; type: binding, murine; conditions: pH 5; remark: listed apart in the source
# [7] = biological target: T1, IAk; type: binding, murine; conditions: pH 7
# [8] = test system: 3DO-54.8 T cells with CH27 APC; type: cell-based
# [9] = biological target: IAk (mouse (endogenous in CH27 B lymphoma)); assay: ELISA
# [10] = biological target: T1, IAk; type: binding, murine; conditions: pH 5; remark: listed apart in the source
# [11] = biological target: T2, DR1; type: binding; conditions: pH 5
# [12] = test system: IEk; type: binding, murine; conditions: pH 5; remark: listed apart in the source
# [13] = test system: IAd; type: binding, murine; conditions: pH 5; remark: listed apart in the source
# [14] = test system: IEd; type: binding, murine; conditions: pH 5
# [15] = test system: IAb; type: binding, murine
# [16] = biological target: T2, DR1; type: binding; conditions: pH 7; remark: listed apart in the source
# [17] = biological target: T1, IAk; type: binding, murine; conditions: pH 5; remark: listed apart in the source
# [18] = test system: 3DO-54.8 T cells
# [19] = biological target: DR1 (human (endogenous in LG2)) (UniProt P01903); assay: ELISA
# biotin-SEB, sequence (P01552 28-266): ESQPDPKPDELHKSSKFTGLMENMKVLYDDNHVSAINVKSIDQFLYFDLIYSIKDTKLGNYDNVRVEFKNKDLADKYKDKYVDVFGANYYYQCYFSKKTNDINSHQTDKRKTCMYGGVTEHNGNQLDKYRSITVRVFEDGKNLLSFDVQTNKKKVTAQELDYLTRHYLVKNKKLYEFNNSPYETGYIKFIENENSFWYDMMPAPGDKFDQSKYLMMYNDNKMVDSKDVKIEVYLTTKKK
molecule,measurement,setting,value
Myo(106-118): IAd-binding peptide (FISEAIIHVLHSR) [reference compound],inhibition of biotin-B(10-30) binding to class II,[1],inhibits
Intact insulin [reference compound],inhibition of the binding of biotin-B(10-30),[2],does not inhibit
same,inhibition of the binding of biotin-B(10-30),[3],does not inhibit
same,inhibition of the binding of biotin-B(10-30),[4],does not inhibit
MAT(17-31): DR1-binding antigenic peptide defined by specific T cells (SGPLKAEIAQRLEDV),inhibition of the binding of biotin-B(10-30) to DR1,[5],25- 50%
"NTDGSTDYGILQINSR [HEL(46-61), reference compound]","affinity for the groove of IEk relative to pCc(91-104), logs lower",[6],at least 3 logs
same,inhibition of the binding of biotin-SEB to IAk,[7],No inhibition
same,inhibition of the response of 3DO-54.8 to SEB (IL-2),[8],did not
FVNQHLCGSHLVEALYLVCGER [B(1-22)],inhibition of the binding of biotin-B(10-30),[2],inhibits
same,inhibition of the binding of biotin-B(10-30),[3],inhibits
same,inhibition of the binding of biotin-B(10-30),[4],inhibits
biotin-SEB (from UniProt P01552 28-266) (natural protein),Kd,[9],62 nM
"RADLIAYLKQATAK [pCc(91-104), reference compound]",inhibition of the binding of allele-specific antigenic peptides,[6],inhibit
CC(C)C[C@H](NC(=O)[C@H](C)NC(=O)[C@H](CCC(=O)O)NC(=O)[C@@H](NC(=O)[C@H](CC(C)C)NC(=O)[C@H](Cc1c[nH]cn1)NC(=O)CCCC[C@@H]1SC[C@@H]2NC(=O)N[C@@H]21)C(C)C)C(=O)N[C@@H](Cc1ccc(O)cc1)C(=O)N[C@@H](CC(C)C)C(=O)N[C@H](C(=O)N[C@@H](CS)C(=O)NCC(=O)N[C@@H](CCC(=O)O)C(=O)N[C@@H](CCCNC(=N)N)C(=O)NCC(=O)N[C@@H](Cc1ccccc1)C(=O)N[C@@H](Cc1ccccc1)C(=O)N[C@@H](Cc1ccc(O)cc1)C(=O)N[C@H](C(=O)N1CCC[C@H]1C(=O)N[C@@H](CCCCNC(=O)CCCC[C@@H]1SC[C@@H]2NC(=O)N[C@@H]21)C(=O)N[C@@H](C)C(=O)O)[C@@H](C)O)C(C)C [biotin-B(10-30)] (Biotin-HLVEALYLVCGERGFFYTPK(Biotin)A-OH; N-terminus and C-terminus assumed),time to saturate the alternative binding site of IAk,[10],≤ 1 h
HLVEALYLVCGERGFFYTPKA [B(10-30)],specific binding to class II protein,[10],binds
same,specific binding to class II protein,[11],binds
same,specific binding to class II protein,[12],binds
same,specific binding to class II protein,[13],binds
same,specific binding to class II protein,[14],binds
same,specific binding to class II protein,[15],binds
same,inhibition of the binding of biotin-B(10-30),[2],inhibit
same,inhibition of the binding of biotin-B(10-30),[3],inhibit
same,inhibition of the binding of biotin-B(10-30),[4],inhibit
same,"affinity for DR1 relative to HA(306-318), logs lower",[16],~ 3 logs
same,inhibition of the binding of allele-specific antigenic peptides,[16],only weakly inhibited
same,"affinity for the groove of IEk relative to pCc(91-104), logs lower",[6],at least 3 logs
same,inhibition of the binding of allele-specific antigenic peptides,[6],only weakly inhibited
same,inhibition of the binding of allele-specific antigenic peptides,[17],only weakly inhibited
same,inhibition of the binding of biotin-SEB to IAk,[7],inhibited
same,peptide concentration giving complete inhibition of SEB binding to IAk,[7],4
same,inhibition of the response of 3DO-54.8 to SEB (IL-2),[8],inhibited
same,dissociation rate from class II,[1],relatively rapid
same,pH dependence of binding to murine class II proteins,[1],not enhanced
same,time to approach saturation / plateau of binding to class II,[1],1 to 2 h
same,effect on stimulation by anti-CD3 mAb (T cell toxicity),[18],not altered
HLVEALYLVCGERGFFYTPKA (not fully specified (N-terminus); also: biotin (site not given here)) [biotin-B(10-30)],Kd,[19],620 nM
